The values below come from ChEMBL document CHEMBL3046781, “Resistance of Helicoverpa assulta (Guenée) (Lepidoptera: Noctuidae) to fenvalerate, phoxim and methomyl in China” (2009).

What all share (type): functional
Test [1] has as its system Helicoverpa assulta. Briefly: Insecticidal activity against sixth-instar larvae of Helicoverpa assulta GZ4 at 1.8 to 183360 mg/l after 48 hr by chi-squared analysis.
In test [2] the test system is Helicoverpa assulta. Briefly: Insecticidal activity against sixth-instar larvae of Helicoverpa assulta YN5 at 1.8 to 183360 mg/l after 48 hr by chi-squared analysis.
In test [3] the test system is Helicoverpa assulta. Briefly: Resistance factor, ratio of LD50 for sixth-instar larvae of Helicoverpa assulta FJ3 to LD50 for sixth-instar larvae of Helicoverpa assulta at 1.8 to 183360 mg/l.
Test [4] deals with Helicoverpa assulta. The test is described as follows: Resistance factor, ratio of LD50 for sixth-instar larvae of Helicoverpa assulta AH3 to LD50 for sixth-instar larvae of Helicoverpa assulta at 1.8 to 183360 mg/l.
Test [5] concerns Helicoverpa assulta. Briefly: Resistance factor, ratio of LD50 for sixth-instar larvae of Helicoverpa assulta GZ1 to LD50 for sixth-instar larvae of Helicoverpa assulta at 1.8 to 183360 mg/l.
In test [6] the test system is Helicoverpa assulta. The test is described as follows: Resistance factor, ratio of LD50 for sixth-instar larvae of Helicoverpa assulta HN2 to LD50 for sixth-instar larvae of Helicoverpa assulta at 21 to 3390 mg/l.
Test [7] deals with Helicoverpa assulta. Briefly: Insecticidal activity against sixth-instar larvae of Helicoverpa assulta FJ3 at 21 to 3390 mg/l after 48 hr by chi-squared analysis.
Test [8] relates to Helicoverpa assulta. The test is described as follows: Resistance factor, ratio of LD50 for sixth-instar larvae of Helicoverpa assulta YN4 to LD50 for sixth-instar larvae of Helicoverpa assulta at 21 to 3390 mg/l.
Test [9] concerns Helicoverpa assulta. The test is described as follows: Resistance factor, ratio of LD50 for sixth-instar larvae of Helicoverpa assulta SD1 to LD50 for sixth-instar larvae of Helicoverpa assulta at 39 to 12630 mg/l.
Test [10] concerns Helicoverpa assulta. Briefly: Resistance factor, ratio of LD50 for sixth-instar larvae of Helicoverpa assulta YN5 to LD50 for sixth-instar larvae of Helicoverpa assulta at 39 to 12630 mg/l.
Test [11] concerns Helicoverpa assulta. The test is described as follows: Insecticidal activity against sixth-instar larvae of Helicoverpa assulta SD2 at 39 to 12630 mg/l after 48 hr by chi-squared analysis.
Test [12] relates to Helicoverpa assulta. Briefly: Insecticidal activity against sixth-instar larvae of Helicoverpa assulta HB2 at 39 to 12630 mg/l after 48 hr by chi-squared analysis.
The subject of test [13] is Helicoverpa assulta. The test is described as follows: Insecticidal activity against sixth-instar larvae of Helicoverpa assulta YN7 at 39 to 12630 mg/l after 48 hr by chi-squared analysis.
Test [14] deals with Helicoverpa assulta. The test is described as follows: Resistance factor, ratio of LD50 for sixth-instar larvae of Helicoverpa assulta YN6 to LD50 for sixth-instar larvae of Helicoverpa assulta at 39 to 12630 mg/l.

For `CC(C)C(C(=O)OC(C#N)c1cccc(Oc2ccccc2)c1)c1ccc(Cl)cc1` (stereo not given) [FENVALERATE], the LD90 in test [1] was found to be 133 µg/g; in test [2] it was 4567 µg/g. Also, the LD50 (commonly the dose expected to kill half of the subjects tested) was found to be 56.2 mg/kg in test [1] (Helicoverpa assulta, GZ4, 48 h) and 1430 mg/kg in [2] (Helicoverpa assulta, YN5, 48 h). Further, the Ratio turned out to be 9.06 in [3], 1546 in test [4] and 1860 in test [5].

Take `CNC(=O)ON=C(C)SC` [METHOMYL]: the Ratio in test [6] is reported as 2.93; in test [8] it was 11.5. In addition, the LD90 in test [7] is 137 µg/g. The molecule also displayed an LD50 in test [7] (Helicoverpa assulta, FJ3, 48 h) of 23.6 mg/kg.

For the molecule `CCOP(=S)(OCC)O/N=C(\C#N)c1ccccc1` [PHOXIM], the Ratio in [9] stood at 5.09; in [10], 11; in test [14], 9.17. The LD90 in [11] turned out to be 50.5 µg/g; in test [12] it was 37.4 µg/g; in test [13] it was 131 µg/g. The 50% lethal dose (LD50) was determined as 17.2 mg/kg in [11] (Helicoverpa assulta, SD2, 48 h); 11.8 mg/kg in [12] (Helicoverpa assulta, HB2, 48 h); 41.8 mg/kg in test [13] (Helicoverpa assulta, YN7, 48 h).
